How the values were obtained:
Type in all cases: in vivo
[1] = system: Beet Armyworm (Spodoptera exigua, LAPHEG); test: Bioassay on Beet Armyworm (BAW), 128-well diet tray assay; conditions: 168 h, 50 μg/cm^2 on artificial diet, second instar BAW larvae, 25° C., five to seven days, average of eight wells, read-out: BAW % Control (or Mortality) rating
Procedure: (§1) Certain molecules disclosed in this document were tested against BAW and CEW using procedures described in the following examples. In the reporting of the results, the “BAW & CL Rating Table” was used (See Table Section).
Bioassays on BAW were conducted using a 128-well diet tray assay. one to five second instar BAW larvae were placed in each well (3 mL) of the diet tray that had been previously filled with 1 mL of artificial diet to which 50 μg/cm^2 of the test compound (dissolved in 50 μL of 90:10 acetone-water mixture) had been applied (to each of eight wells) and then allowed to dry. Trays were covered with a clear self-adhesive cover and held at 25° C., 14:10 light-dark for five to seven days. Percent mortality was recorded for the larvae in each well; activity in the eight wells was then averaged. The results are indicated in the table entitled “Table ABC: Biological Results” (See Table Section).

[2] = system: Cabbage Looper (Trichoplusia ni, TRIPNI); test: Bioassay on Cabbage Looper (CL), 128-well diet tray assay; conditions: 168 h, 50 μg/cm^2 on artificial diet, second instar CL larvae, 25° C., five to seven days, average of eight wells, read-out: CL % Control (or Mortality) rating
Procedure: as §1
Bioassays on CL were conducted using a 128-well diet tray assay, one to five second instar CL larvae were placed in each well (3 mL) of the diet tray that had been previously filled with 1 mL of artificial diet to which 50 μg/cm^2 of the test compound (dissolved in 50 μL of 90:10 acetone-water mixture) had been applied (to each of eight wells) and then allowed to dry. Trays were covered with a clear self-adhesive cover and held at 25° C., 14:10 light-dark for five to seven days. Percent mortality was recorded for the larvae in each well; activity in the eight wells was then averaged. The results are indicated in the table entitled “Table ABC: Biological Results” (See Table Section).

[3] = system: Green Peach Aphid (Myzus persicae, MYZUPE); test: Bioassay on Green Peach Aphid (GPA), foliar spray on cabbage seedlings; conditions: 72 h, 200 ppm spray on infested cabbage seedlings, graded after three days, Abbott corrected % control, read-out: GPA % Control (or Mortality) rating
Procedure: Certain molecules disclosed in this document were tested against GPA using procedures described in the following example. In the reporting of the results, the “GPA Rating Table” was used (See Table Section).
Cabbage seedlings grown in 3-inch pots, with 2-3 small (3-5 cm) true leaves, were used as test substrate. The seedlings were infested with 20-50 GPA (wingless adult and nymph stages) one day prior to chemical application. Four pots with individual seedlings were used for each treatment. Test compounds (2 mg) were dissolved in 2 mL of acetone/methanol (1:1) solvent, forming stock solutions of 1000 ppm test compound. The stock solutions were diluted 5× with 0.025% Tween 20 in water to obtain the solution at 200 ppm test compound. A hand-held aspirator-type sprayer was used for spraying a solution to both sides of […] leaves until runoff. Reference plants (solvent check) were sprayed with the diluent only containing 20% by volume of acetone/methanol (1:1) solvent. Treated plants were held in a holding room for three days at approximately 25° C. and ambient relative humidity (RH) prior to grading. Evaluation was conducted by counting the number of live aphids per plant under a microscope. Percent Control was measured by using Abbott's correction formula (W. S. Abbott, “A Method of Computing the Effectiveness of an Insecticide” J. Econ. Entomol. 18 (1925), pp. 265-267) as follows. Corrected % Control=100*(X−Y)/X where X=No. of live aphids on solvent check plants and Y=No. of live aphids on treated plants

`FC(F)(F)Oc1ccc(-n2cnc(-c3ccc(NC4=NC(c5ccc(Cl)cc5)CS4)cc3)n2)cc1` (stereo not drawn) [Compound F25, 4-(4-Chlorophenyl)-N-(4-(1-(4-(trifluoromethoxy)phenyl)-1H-1,2,4-triazol-3-yl)phenyl)-4,5-dihydrothiazol-2-amine] showed a mortality at 50 µg/cm2 [1] of 0%, a mortality at 50 µg/cm2 [2] of 0% and a mortality at 200 ppm [3] of 0%.
Work on `FC(F)(F)Oc1ccc(-n2cnc(-c3ccc(NC4=NC(c5ccc(Br)cc5)CS4)cc3)n2)cc1` (stereo not drawn) [Compound F26, 4-(4-Bromophenyl)-N-(4-(1-(4-(trifluoromethoxy)phenyl)-1H-1,2,4-triazol-3-yl)phenyl)-4,5-dihydrothiazol-2-amine] yielded a mortality at 50 µg/cm2 [1] of 0%, a mortality at 50 µg/cm2 [2] of 0 to 50% and a mortality at 200 ppm [3] of 0%.
For `FC(F)(F)Oc1ccc(-n2cnc(-c3ccc(NC4=NC(c5ccc(C(F)(F)F)cc5)CS4)cc3)n2)cc1` (stereo not drawn) [Compound F27, N-(4-(1-(4-(Trifluoromethoxy)phenyl)-1H-1,2,4-triazol-3-yl)phenyl)-4-(4-(trifluoromethyl)phenyl)-4,5-dihydrothiazol-2-amine], the mortality at 50 µg/cm2 [1] was 0%, the mortality at 50 µg/cm2 [2] was 50 to 100% and the mortality at 200 ppm [3] was 0%.
For `FC(F)(F)Oc1ccc(C2CSC(Nc3ccc(-c4ncn(-c5ccc(OC(F)(F)F)cc5)n4)cc3)=N2)cc1` (stereo not drawn) [Compound F28, 4-(4-(Trifluoromethoxy)phenyl)-N-(4-(1-(4-(trifluoromethoxy)phenyl)-1H-1,2,4-triazol-3-yl)phenyl)-4,5-dihydrothiazol-2-amine], the mortality at 50 µg/cm2 [1] was 0 to 50%, the mortality at 50 µg/cm2 [2] was 0% and the mortality at 200 ppm [3] was 0%.
With `FC(F)(F)Oc1ccc(-n2cnc(-c3ccc(NC4=NC(c5cccc(Cl)c5)CS4)cc3)n2)cc1` (stereo not drawn) [Compound F29, 4-(3-Chlorophenyl)-N-(4-(1-(4-(trifluoromethoxy)phenyl)-1H-1,2,4-triazol-3-yl)phenyl)-4,5-dihydrothiazol-2-amine] the mortality at 50 µg/cm2 [1] was 50 to 100%, the mortality at 50 µg/cm2 [2] was 50 to 100% and the mortality at 200 ppm [3] was 0%.
With `FC(F)(F)Oc1ccc(-n2cnc(-c3ccc(NC4=NC(c5ccccc5Cl)CS4)cc3)n2)cc1` (stereo not drawn) [Compound F30, 4-(2-Chlorophenyl)-N-(4-(1-(4-(trifluoromethoxy)phenyl)-1H-1,2,4-triazol-3-yl)phenyl)-4,5-dihydrothiazol-2-amine] the mortality at 50 µg/cm2 [1] was 50 to 100%, the mortality at 50 µg/cm2 [2] was 50 to 100% and the mortality at 200 ppm [3] was 0%.
With `Cc1cc(C2CSC(Nc3ccc(-c4ncn(-c5ccc(OC(F)(F)F)cc5)n4)cc3)=N2)ccc1Cl` (stereo not drawn) [Compound F31, 4-(4-Chloro-3-methylphenyl)-N-(4-(1-(4-(trifluoromethoxy)phenyl)-1H-1,2,4-triazol-3-yl)phenyl)-4,5-dihydrothiazol-2-amine] the mortality at 50 µg/cm2 [1] was 50 to 100%, the mortality at 50 µg/cm2 [2] was 50 to 100% and the mortality at 200 ppm [3] was 0%.
For `COc1ccc(C2CSC(Nc3ccc(-c4ncn(-c5ccc(C(F)(F)F)cc5)n4)cc3)=N2)cc1` (stereo not drawn) [Compound F32, 4-(4-Methoxyphenyl)-N-(4-(1-(4-(trifluoromethyl)phenyl)-1H-1,2,4-triazol-3-yl)phenyl)-4,5-dihydrothiazol-2-amine], the mortality at 50 µg/cm2 [1] was 0%, the mortality at 50 µg/cm2 [2] was 0% and the mortality at 200 ppm [3] was 0%.
`Cc1ccc(C2CSC(Nc3ccc(-c4ncn(-c5ccc(C(F)(F)F)cc5)n4)cc3)=N2)cc1` (stereo not drawn) [Compound F33, 4-(p-Tolyl)-N-(4-(1-(4-(trifluoromethyl)phenyl)-1H-1,2,4-triazol-3-yl)phenyl)-4,5-dihydrothiazol-2-amine] was tested, and the mortality at 50 µg/cm2 [1] was 0%, the mortality at 50 µg/cm2 [2] was 0% and the mortality at 200 ppm [3] was 0 to 80%.
With `FC(F)(F)c1ccc(-n2cnc(-c3ccc(NC4=NC(c5ccccc5)CS4)cc3)n2)cc1` (stereo not drawn) [Compound F34, 4-Phenyl-N-(4-(1-(4-(trifluoromethyl)phenyl)-1H-1,2,4-triazol-3-yl)phenyl)-4,5-dihydrothiazol-2-amine] the mortality at 50 µg/cm2 [1] was 50 to 100%, the mortality at 50 µg/cm2 [2] was 50 to 100% and the mortality at 200 ppm [3] was 0%.
`Fc1ccc(C2CSC(Nc3ccc(-c4ncn(-c5ccc(C(F)(F)F)cc5)n4)cc3)=N2)cc1` (stereo not drawn) [Compound F35, 4-(4-Fluorophenyl)-N-(4-(1-(4-(trifluoromethyl)phenyl)-1H-1,2,4-triazol-3-yl)phenyl)-4,5-dihydrothiazol-2-amine] showed a mortality at 50 µg/cm2 [1] of 0%, a mortality at 50 µg/cm2 [2] of 50 to 100% and a mortality at 200 ppm [3] of 0%.
With `FC(F)(F)c1ccc(-n2cnc(-c3ccc(NC4=NC(c5ccc(Cl)cc5)CS4)cc3)n2)cc1` (stereo not drawn) [Compound F36, 4-(4-Chlorophenyl)-N-(4-(1-(4-(trifluoromethyl)phenyl)-1H-1,2,4-triazol-3-yl)phenyl)-4,5-dihydrothiazol-2-amine] the mortality at 50 µg/cm2 [1] was 0%, the mortality at 50 µg/cm2 [2] was 50 to 100% and the mortality at 200 ppm [3] was 0%.
With `FC(F)(F)c1ccc(-n2cnc(-c3ccc(NC4=NC(c5ccc(Br)cc5)CS4)cc3)n2)cc1` (stereo not drawn) [Compound F37] the mortality at 50 µg/cm2 [1] was 0%, the mortality at 50 µg/cm2 [2] was 0% and the mortality at 200 ppm [3] was 0%.
Work on `FC(F)(F)c1ccc(C2CSC(Nc3ccc(-c4ncn(-c5ccc(C(F)(F)F)cc5)n4)cc3)=N2)cc1` (stereo not drawn) [Compound F38, 4-(4-(Trifluoromethyl)phenyl)-N-(4-(1-(4-(trifluoromethyl)phenyl)-1H-1,2,4-triazol-3-yl)phenyl)-4,5-dihydrothiazol-2-amine] yielded a mortality at 50 µg/cm2 [1] of 0 to 50%, a mortality at 50 µg/cm2 [2] of 50 to 100% and a mortality at 200 ppm [3] of 0%.
Work on `FC(F)(F)Oc1ccc(C2CSC(Nc3ccc(-c4ncn(-c5ccc(C(F)(F)F)cc5)n4)cc3)=N2)cc1` (stereo not drawn) [Compound F39, 4-(4-(Trifluoromethoxy)phenyl)-N-(4-(1-(4-(trifluoromethyl)phenyl)-1H-1,2,4-triazol-3-yl)phenyl)-4,5-dihydrothiazol-2-amine] yielded a mortality at 50 µg/cm2 [1] of 0%, a mortality at 50 µg/cm2 [2] of 0% and a mortality at 200 ppm [3] of 0%.
`FC(F)(F)c1ccc(-n2cnc(-c3ccc(NC4=NC(c5cccc(Cl)c5)CS4)cc3)n2)cc1` (stereo not drawn) [Compound F40, 4-(3-Chlorophenyl)-N-(4-(1-(4-(trifluoromethyl)phenyl)-1H-1,2,4-triazol-3-yl)phenyl)-4,5-dihydrothiazol-2-amine] showed a mortality at 50 µg/cm2 [1] of 50 to 100%, a mortality at 50 µg/cm2 [2] of 50 to 100% and a mortality at 200 ppm [3] of 0 to 80%.
With `FC(F)(F)c1ccc(-n2cnc(-c3ccc(NC4=NC(c5ccccc5Cl)CS4)cc3)n2)cc1` (stereo not drawn) [Compound F41, 4-(2-Chlorophenyl)-N-(4-(1-(4-(trifluoromethyl)phenyl)-1H-1,2,4-triazol-3-yl)phenyl)-4,5-dihydrothiazol-2-amine] the mortality at 50 µg/cm2 [1] was 50 to 100%, the mortality at 50 µg/cm2 [2] was 50 to 100% and the mortality at 200 ppm [3] was 0%.
In the case of `Cc1cc(C2CSC(Nc3ccc(-c4ncn(-c5ccc(C(F)(F)F)cc5)n4)cc3)=N2)ccc1Cl` (stereo not drawn) [Compound F42, 4-(4-Chloro-3-methylphenyl)-N-(4-(1-(4-(trifluoromethyl)phenyl)-1H-1,2,4-triazol-3-yl)phenyl)-4,5-dihydrothiazol-2-amine], the mortality at 50 µg/cm2 [1] is reported as 0%, the mortality at 50 µg/cm2 [2] is reported as 0% and the mortality at 200 ppm [3] is reported as 0%.

— US9326516B2, “Molecules having certain pesticidal utilities, and intermediates, compositions, and processes related thereto” (Dow AgroSciences LLC, priority 2014, dated 2016)
